Source: patent US20240383904A1, “HETEROCYCLIC COMPOUNDS” (Hoffmann-La Roche Inc., priority 2021, published 2024)

target: T1, MAGL (Homo sapiens, UniProt Q99685); assay: 2-AG assay: MAGL inhibitory activity by hydrolysis of 2-arachidonoylglycerol to arachidonic acid, followed by mass spectrometry; type: biochemical; conditions: 15 min preincubation, 30 min reaction at RT, 8 μM 2-arachidonoylglycerol
T1 sequence (Q99685 1-303): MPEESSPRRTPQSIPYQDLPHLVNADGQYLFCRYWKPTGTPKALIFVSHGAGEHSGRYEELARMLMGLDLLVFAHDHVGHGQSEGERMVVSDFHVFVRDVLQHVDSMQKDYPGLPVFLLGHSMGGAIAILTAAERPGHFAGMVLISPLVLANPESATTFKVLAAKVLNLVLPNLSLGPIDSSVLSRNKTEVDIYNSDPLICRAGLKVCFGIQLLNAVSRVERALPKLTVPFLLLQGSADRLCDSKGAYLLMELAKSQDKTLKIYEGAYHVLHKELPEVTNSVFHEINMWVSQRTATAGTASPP

Point of comparison: `N=[S@@](=O)(c1ccc(CC2CC3(C2)CN(C(=O)N2CC4(CCC(=O)N4)C2)C3)cc1)C(F)(F)F` [Example 286, 2-[6-[[4-(trifluoromethylsulfoni-midoyl)phenyl]methyl]-2-azaspiro[3.3]heptane-2-carbonyl]-2,5-diazaspiro[3.4]octan-6-one], IC50 2.89 nM. Against it:
- O=C1CCCC2(CN(C(=O)N3CC4(CC(Cc5ccc(S(=O)(=O)C(F)(F)F)cn5)C4)C3)C2)N1 [Example 263, 2-[6-[[5-(trifluoromethylsulfonyl)-2-pyridyl]methyl]-2-azaspiro[3.3]heptane-2-carbonyl]-2,5-diazaspiro[3.5]nonan-6-one] — 63-fold higher, 183 nM
- O=C1COCC2(CN(C(=O)N3CC4(CC(Cc5ccc(S(=O)(=O)C(F)(F)F)cn5)C4)C3)C2)N1 [Example 264, 2-[6-[[5-(trifluoromethylsulfonyl)-2-pyridyl]methyl]-2-azaspiro[3.3]heptane-2-carbonyl]-8-oxa-2,5-diazaspiro[3.5]nonan-6-one] — 1.9-fold higher, 5.51 nM
- N=S(=O)(c1ccc(CC2CC3(C2)CN(C(=O)N2CC4(CCC(=O)N4)C2)C3)c(F)c1)C(F)(F)F (stereo not drawn) [Example 265, 2-[6-[[2-fluoro-4-(trifluoromethylsulfoni-midoyl)phenyl]methyl]-2-azaspiro[3.3]heptane-2-carbonyl]-2,5-diazaspiro[3.5]octan-6-one] — 6-fold lower, 0.48 nM
- O=C1CCCC2(CN(C(=O)N3CC4(CCN(Cc5cccc(S(=O)(=O)C(F)(F)F)c5)C4)C3)C2)N1 [Example 266, 2-[7-[[3-(trifluoromethylsulfonyl)phenyl]methyl]-2,7-diazaspiro[3.4]octane-2-carbonyl]-2,5-diazaspiro[3.5]nonan-6-one] — 480-fold higher, 1380 nM
- O=C1CCCC2(CN(C(=O)N3CC4(CN(Cc5ccc(S(=O)(=O)C(F)(F)F)cc5F)C4)C3)C2)N1 [Example 267, 2-[6-[[2-fluoro-4-(trifluoromethylsulfonyl)phenyl]methyl]-2,6-diazaspiro[3.3]heptane-2-carbonyl]-2,5-diazaspiro[3.5]nonan-6-one] — 430-fold higher, 1240 nM
- CS(=O)(=O)c1cc(CC2CC3(C2)CN(C(=O)N2CC4(CCCC(=O)N4)C2)C3)cc(C(F)(F)F)c1 [Example 268, 2-[6-[[3-methylsulfonyl-5-(trifluoromethyl)phenyl]methyl]-2-azaspiro[3.3]heptane-2-carbonyl]-2,5-diazaspiro[3.5]nonan-6-one] — 100-fold higher, 301 nM
- O=C1CCCC2(CN(C(=O)N3CC4(CC(Cc5ccc(S(=O)(=O)C6CC6)cc5)C4)C3)C2)N1 [Example 269, 2-[6-[(4-cyclopropylsulfonylphe-nyl)methyl]-2-azaspiro[3.3]heptane-2-carbonyl]-2,5-diazaspiro[3.5]nonan-6-one] — 160-fold higher, 473 nM
- N#Cc1ccc(CC2CC3(C2)CN(C(=O)N2CC4(CCCC(=O)N4)C2)C3)cc1C(F)(F)F [Example 270] — 25-fold higher, 72.4 nM
- N#Cc1cc(CC2CC3(C2)CN(C(=O)N2CC4(CCCC(=O)N4)C2)C3)ccc1C(F)(F)F [Example 271, 5-[[2-(6-oxo-2,5-diazaspiro[3.5]nonane-2-carbonyl)-2-azaspiro[3.3]heptan-6-yl]methyl]-2-(trifluoromethyl)benzoni-trile] — 11-fold higher, 31.6 nM
- N#Cc1cc(CC2CC3(C2)CN(C(=O)N2CC4(CCCC(=O)N4)C2)C3)cnc1C(F)(F)F [Example 272, 5-[[2-(6-oxo-2,5-diazaspiro[3.5]nonane-2-carbonyl)-2-azaspiro[3.3]heptan-6-yl]methyl]-2-(trifluoromethyl)pyridine-3-carbonitrile] — 280-fold higher, 795 nM
- N#Cc1ccc(CC2CC3(C2)CN(C(=O)N2CC4(CCCC(=O)N4)C2)C3)c(F)c1 [Example 273, 3-fluoro-4-[[2-(6-oxo-2,5-diazaspiro[3.5]nonane-2-carbonyl)-2-azaspiro[3.3]heptan-6-yl]methyl]benzonitrile] — 24-fold higher, 68.2 nM
- O=C1CCCC2(CN(C(=O)N3CC4(CC(Cn5cc(C(F)(F)F)cn5)C4)C3)C2)N1 [Example 274, 2-[6-[[4-(trifluoromethyl)pyrazol-1-yl]methyl]-2-azaspiro[3.3]heptane-2-carbonyl]-2,5-diazaspiro[3.5]nonan-6-one] — 190-fold higher, 540 nM
- Cn1nc(CC2CC3(C2)CN(C(=O)N2CC4(CCCC(=O)N4)C2)C3)cc1C(F)(F)F [Example 275, 2-[6-[[1-methyl-5-(trifluoromethyl)pyrazol-3-yl]methyl]-2-azaspiro[3.3]heptane-2-carbonyl]-2,5-diazaspiro[3.5]nonan-6-one] — 36-fold higher, 104 nM
- Cn1ncc(CC2CC3(C2)CN(C(=O)N2CC4(CCCC(=O)N4)C2)C3)c1C(F)(F)F [Example 276] — 32-fold higher, 92.7 nM
- Cn1ncc(C(F)(F)F)c1CC1CC2(C1)CN(C(=O)N1CC3(CCCC(=O)N3)C1)C2 [Example 277, 2-[6-[[2-methyl-4-(trifluoromethyl)pyrazol-3-yl]methyl]-2-azaspiro[3.3]heptane-2-carbonyl]-2,5-diazaspiro[3.5]nonan-6-one] — 67-fold higher, 195 nM
- O=C1CCCC2(CN(C(=O)N3CC4(CC(Cc5cc(C(F)(F)F)n[nH]5)C4)C3)C2)N1 [Example 278, 2-[6-[[3-(trifluoromethyl)-1H-pyrazol-5-y1]methyl]-2-azaspiro[3.3]heptane-2-carbonyl]-2,5-diazaspiro[3.5]nonan-6-one] — 170-fold higher, 479 nM
- O=C1CCCC2(CN(C(=O)N3CC4(CC(Cc5cc(C(F)F)n[nH]5)C4)C3)C2)N1 [Example 279, 2-[6-[[3-(difluoromethyl)-1H-pyrazol-5-yl]methyl]-2-azaspiro[3.3]heptane-2-carbonyl]-2,5-diazaspiro[3.5]nonan-6-one] — 360-fold higher, 1030 nM
- O=C1CCC2(CN(C(=O)N3CC4(CC(S(=O)(=O)c5cccc(OC(F)(F)F)c5)C4)C3)C2)N1 [Example 280, 2-[6-[3-(trifluoromethoxy)phenyl]sulfonyl-2-azaspiro[3.3]heptane-2-carbonyl]2,5-diazaspiro[3.4]octan-6-one] — 67-fold higher, 195 nM
- O=C1CCC2(CN(C(=O)N3CC4(CCC(S(=O)(=O)c5ccc(C(F)(F)F)cc5)CC4)C3)C2)N1 [Example 281, 2-[7-[4-(trifluoromethyl)phenyl]sulfonyl-2-azaspiro[3.5]nonane-2-carbonyl]-2,5-diazaspiro[3.4]octan-6-one] — 2.2-fold higher, 6.44 nM
- O=C1CCC2(CN(C(=O)N3CC4(CCC(S(=O)(=O)c5cccc(C(F)(F)F)c5)CC4)C3)C2)N1 [Example 282, 2-[7-[3-(trifluoromethyl)phenyl]sulfonyl-2-azaspiro[3.5]nonane-2-carbonyl]-2,5-diazaspiro[3.4]octan-6-one] — 13-fold higher, 37.2 nM
- N=[S@](=O)(c1ccc(CC2CC3(C2)CN(C(=O)N2CC4(CCC(=O)N4)C2)C3)cc1)C(F)(F)F [Example 283, 2-[6-[[4-(trifluoromethylsulfoni-midoyl)phenyl]methyl]-2-azaspiro[3.3]heptane-2-carbonyl]-2,5-diazaspiro[3.4]octan-6-one] — 4.7-fold lower, 0.62 nM
- N=[S@](=O)(c1ccc(CC2CC3(C2)CN(C(=O)N2CC4(COCC(=O)N4)C2)C3)cc1)C(F)(F)F [Example 285, 2-[6-[[4-(trifluoromethylsulfoni-midoyl)phenyl]methyl]-2-azaspiro[3.3]heptane-2-carbonyl]-8-oxa-2,5-diazaspiro[3.5]nonan-6-one] — 1.7-fold higher, 4.95 nM
- N=[S@@](=O)(c1ccc(CC2CC3(C2)CN(C(=O)N2CC4(COCC(=O)N4)C2)C3)cc1)C(F)(F)F [Example 288, 2-[6-[[4-(trifluoromethylsulfoni-midoyl)phenyl]methyl]-2-azaspiro[3.3]heptane-2-carbonyl]-8-oxa-2,5-diazaspiro[3.5]nonan-6-one] — 3.1-fold higher, 8.91 nM
